Experiments:
[1] = Safety assessment (TEAEs), rifampin study; assay type: in vivo, human
Procedure: Participants were confined to the study center from days −1 through 22 for the collection of plasma PK samples and all study procedures. Participants received an oral dose of ripretinib 100 mg on day 1 under fasting conditions; a higher dose of ripretinib was used than in the itraconazole or pantoprazole study due to the potential for decreased ripretinib exposure when coadministered with a strong CYP3A inducer (Figure 1B). On day 8, participants received oral doses of rifampin 600 mg once daily 1 hour before a meal with a full glass of water for 14 consecutive days through day 21. On day 18, participants received a second dose of ripretinib 100 mg administered simultaneously with rifampin 600 mg under fasting conditions. Blood samples for PK analysis were collected at predose and 1, 2, 3, 4, 5, 8, 10, 12, 24, 36, 48, 72, and 96 hours after administration of ripretinib on days 1 and 18. Safety was assessed throughout the study period and with a follow‐up phone call on day 29 or 7 days after discontinuation in the case of early withdrawal.
Relationship to study drug was assessed by the investigator.
Safety data were summarized as n (%).

Solubility = assay type: physicochemical
[2] = cited from earlier work
[3] = 20 mg once daily up to 150 mg once daily

## CCn1c(=O)c(-c2cc(NC(=O)Nc3ccccc3)c(F)cc2Br)cc2cnc(NC)cc21 [Ripretinib]
[1]; human, in vivo, 21 days
  Number of TEAEs assessed as related to study drug: 78
  Participants with TEAEs assessed as related to study drug per the investigator: 23 (95.8%) n (%)
  Total number of TEAEs: 94
[1]; rifampin study, N = 24
  Deaths and serious AEs: No deaths or SAEs occurred
Solubility
  Solubility, pH dependence: reduced solubility at neutral pH
[2]; [3]
  Dose proportionality of AUC: generally proportional to dose
  Dose proportionality of Cmax: less than dose proportional
[2]; cancer patients, after a single dose
  Time to maximum plasma concentrations: approximately 4 hours
[2]; cancer patients
  Time to reach steady-state conditions: ≤ 14 days
[2]; once-daily dosing of 150 mg
  Accumulation ratio: approximately 1.7
[2]; patients with cancer, doses up to ripretinib 200 mg twice daily
  Maximum tolerated dose: not reached
[2]; patients
  Steady-state PK exposure, 150 mg twice daily compared with 150 mg once daily: approximately 2 fold
